In patent publication US20240197666A1, “DITERPENOID COMPOUNDS THAT ACT ON PROTEIN KINASE C (PKC)” (K-Gen Therapeutics, Inc., priority 2021, published 2024):
Read-outs that look alike come from different tables or passages of the source.

Tests used:
[1] = tested on: NFκB-driven transcription in HeLa-NFκB luciferase reporter cell line; test: NFκB luciferase reporter assay
C1b domain of human PKCθ = molecular target: T1, C1b domain of human PKCθ (Homo sapiens, UniProt Q04759); test: biochemical; assay type: binding; conditions: 3H-PDBu competition
T1 construct: Genes encoding C1b domains of human PKCα, δ, ε, θ, and PKD1 (PKCμ) were synthesized; made in house; host or cells: E. coli BL21(DE3)
T1 sequence (Q04759 231-281 limits assumed): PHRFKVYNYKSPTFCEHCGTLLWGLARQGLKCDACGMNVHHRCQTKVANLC
Method in brief: (§1)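 First, the E. coli-produced human GST-C1b protein was mixed with compound and 3H-PDBu and shaken 10 min at 37° C. Next, the plate sat on ice 20 min before filtration and scintillation counting of bound tracer. Finally, IC50 fits were transformed into Ki values.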

C1b domain of human PKCε = molecular target: T2, C1b domain of human PKCε (Homo sapiens, UniProt Q02156); test: biochemical; assay type: binding; conditions: 3H-PDBu competition
T2 construct: Genes encoding C1b domains of human PKCα, δ, ε, θ, and PKD1 (PKCμ) were synthesized; made in house; host or cells: E. coli BL21(DE3)
T2 sequence (Q02156 242-292 limits assumed): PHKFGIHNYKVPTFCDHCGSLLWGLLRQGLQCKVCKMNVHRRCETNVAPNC
Method in brief: as §1

C1b domain of human PKCδ = molecular target: T3, C1b domain of human PKCδ (Homo sapiens, UniProt Q05655); test: biochemical; assay type: binding; conditions: 3H-PDBu competition
T3 construct: Genes encoding C1b domains of human PKCα, δ, ε, θ, and PKD1 (PKCμ) were synthesized; made in house; host or cells: E. coli BL21(DE3)
T3 sequence (Q05655 230-280 limits assumed): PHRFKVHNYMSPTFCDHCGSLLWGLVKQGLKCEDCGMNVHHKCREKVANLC
Method in brief: as §1

Mino (Lymphoma) = test: Proliferation of Mino; assay type: cell-based; conditions: for IC50: read-out: IC50 Mino (Lymphoma)
Method in brief: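 Cells seeded per line (KP-4 800-1000, Panc2.13 3000, Namalwa and Mino 5000-10000 cells/well), 24 h at 37° C, then 96 h with 3-fold serial dilutions of compound, final DMSO ≤0.25%. CellTiter Glo luminescence read; % inhibition vs DMSO-only max, IC50 fitted. Potency also normalized as ratio to comparator K101 across batches.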

KP-4 (Pancreatic) = test: Proliferation of KP-4; assay type: cell-based; conditions: read-out: IC50 KP-4 (Pancreatic)
Procedure: (§2) The diterpenoid compounds were tested in A549, a non-small cell lung cancer cell line harboring a K-Ras activating mutation. Briefly, A549 cells at a density of 1,000 cells/well were seeded in 96-well plates and incubated at 37° C. for 24 hours. A series of different concentrations of compound stocks (500×) were prepared by 3-fold serial dilution in DMSO. These compounds were further diluted in culture media and then added to cells so that the final DMSO concentration was not exceeding 0.25%. After 96 hours of incubation, 50 μL of CellTiter Glo reagent (Promega) was added to each well and luminescence was measured after 10 minutes using EnVision (PerkinElmer). Luminescence from cells treated with DMSO alone was set as Max and % of inhibition was calculated as follows: Inhibition %=(Max-Sample value)/Max×100. Data was analyzed using XL-fit software (ID Business Solutions Ltd.) and IC50, relative IC50, and % of top inhibition was calculated. Some of the compounds in this disclosure were very potent in blocking proliferation of A549 lung cancer cells at low nM range. In addition, potency of inhibiting A549 proliferation correlated well with its binding affinity to PKCs for this series of compounds. In other words, higher affinity binders had stronger inhibitory effects on A549 proliferation. This further support the notion that activation, rather than inhibition, of certain PKC isoforms is required to block proliferation of cancer cells, some of which may harbor K-Ras mutations. This is in sharp contrast to previous literature and common belief that inhibition of PKC is necessary to block cancer cell growth (Kang, 2014, New Journal of Science, 2014:1-36). Data presented here is in agreement with recent findings that many loss-of-function but not gain-of-function mutations of PKC isoforms have been identified in many human cancers (Antal et al., 2015, Cell, 160:489-502).
(§3) The compounds in this disclosure were tested for their potency in blocking proliferation of a few other cancer cells lines, including K-Ras mutant pancreatic cell lines Panc2.13 and KP-4, leukemia cell line HL-60, and lymphoma cell lines Namalwa and Mino. Similar procedures as in Example 67 were followed. Initial cell numbers seeded in 96-well plates were different for different cell lines: 3000 cells/well for Panc2.13; 800-1000 cells/well for KP-4; 5000 cells/well for HL-60; 5000-10000 cells/well for Namalwa and Mino. A ratio of (IC50 of K101)/(IC50 of compound) (data in parenthesis in Table 5) was used to normalize the compound potency from different assay batches to a common comparator K101.

Panc2.13 (Pancreatic) = test: Proliferation of Panc2.13; assay type: cell-based; conditions: for IC50: read-out: IC50 Panc2.13 (Pancreatic)
Procedure: as §2, §3

[2] = molecular target: T4, C1b domain of human PKD1 (PKCμ) (Homo sapiens, UniProt Q15139); test: Competitive 3H-PDBu binding assay, C1b domain of PKD1 (PKCμ); conditions: 3H-PDBu competition
T4 construct: Genes encoding C1b domains of human PKCα, δ, ε, θ, and PKD1 (PKCμ) were synthesized; made in house; host or cells: E. coli BL21(DE3)
T4 sequence (Q15139 270-320 limits assumed): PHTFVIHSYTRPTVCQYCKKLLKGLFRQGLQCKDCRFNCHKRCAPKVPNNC
Method in brief: as §1

A549 cell line = test: Proliferation of A549 (CellTiter Glo); assay type: cell-based; conditions: read-out: IC50 μM (A549 Cell Line)
Method in brief: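 A549 cells (K-Ras-mutant NSCLC) were seeded at 1,000 cells/well, allowed 24 h to settle, then exposed for 96 h to 3-fold serially diluted compound (final DMSO ≤0.25%). CellTiter Glo luminescence was read, and inhibition was calculated relative to DMSO-only wells. IC50, relative IC50 and % top inhibition came from curve fitting.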

HL-60 (Leukemia) = test: Proliferation of HL-60; assay type: cell-based
C1b domain of human PKCα = molecular target: T5, C1b domain of human PKCα (Homo sapiens, UniProt P17252); test: biochemical; assay type: binding; conditions: 3H-PDBu competition
T5 construct: Genes encoding C1b domains of human PKCα, δ, ε, θ, and PKD1 (PKCμ) were synthesized; made in house; host or cells: E. coli BL21(DE3)

Namalwa (Lymphoma) = test: Proliferation of Namalwa; assay type: cell-based; conditions: for IC50: read-out: IC50 Namalwa (Lymphoma)
Method in brief: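 Luminescent ATP read-out (CellTiter Glo) after 96 h compound exposure gave % inhibition relative to DMSO-treated cells, from which IC50 was fitted. Seeding densities were line-specific, from 800 to 10000 cells/well. Potency across batches was normalised to reference compound K101.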

[3] = tested on: phosphorylation of PKCμ, PKCδ and Erk1/2 in A549 lung cancer cells; test: Western blot of activation of PKC and downstream target protein in A549 cells; assay type: cell-based; conditions: 30 minutes
Procedure: According to the methods described in patent (WO/2017/083783) A549 lung cancer cells (˜3 million cells) were seeded in 10 cm tissue culture dishes (or ˜1 million cells in 6 cm dish) and grown overnight. Cells were then treated with different drugs at indicated concentrations for 30 minutes. Cell lysate preparation, protein quantitation, SDS-PAGE, and Western blotting procedures are described (WO/2017/083783). β-actin or Vinculin was used as loading controls. Imagequant LAS4000 (GE) was used to scan membranes if secondary antibodies anti-mouse IgG HRP conjugate or anti-rabbit IgG HRP conjugate (dilutions from 1:2000-1:10000) were used. For ProteinSimple Wes system, manufacture's procedure was followed (ProteinSimple 12-230 kDa Wes Separation Module) for sample preparation, loading, running, and data analysis.
Phosphorylation of these sites has been linked to acute activation or catalytic activity of the PKC isoforms and Erk1/2. High level of phosphorylation indicates strong activation.
A subset of the diterpenoid compounds with good binding affinity to novel PKC isoforms and PKCμ was tested at two different concentrations in A549 cells to assess activation of PKCμ, PKCδ, and Erk1/2 by Western blot analysis. In addition to the phospho-specific antibodies described above, an additional phospho-specific antibody P-PKCδ (S299) (Abcam cat #133456) was also used. This antibody has been shown in the literature (Durgan et al., FEBS Lett. 2007, 581(18):3377-81, Novel phosphorylation site markers of protein kinase C delta activation) to be able to detect activation of PKCδ. K-101 (prostratin, 1 μM) was included as reference compounds.

PANC1 cells = test: Sphere formation assay; assay type: cell-based; conditions: Homo sapiens, PANC-1, read-out: concentration exhibiting at least 50% inhibition on the sphere forming efficiency
Procedure: A group of diterpenoid compounds of the present disclosure were tested to assess their effects on blocking formation of spheres from cancer cell lines such as PANC1, a K-Ras mutant pancreatic cell line. Briefly, PANC1 cells were harvested, re-suspended as single cell suspensions, counted and seeded into Ultra Low Attachment Culture 96-well plate (Corning, Cat #3474) at 100 cells/well in 100 μl of complete media (with 10% FBS) containing 2% Matrigel (Corning, Cat #354234) and DMSO or compounds. Six replicates per condition were seeded. The seeded cells were placed in the 37° C. tissue culture incubator. 10 μl of low serum containing media (with 0.1% FBS) was added to each well every week. Spheres formed after 3-4 weeks were counted. Sphere forming efficiency was expressed as percentage of # of spheres/ # of cells seeded.

Panc2.13 tumors = test: Panc2.13 xenograft model, intra-tumoral injection; assay type: in vivo, mouse; conditions: end of efficacy study, three mice per group, seven daily IT injections
Procedure: Immunodeficient (athymic) Nu/Nu mice were implanted at one flank subcutaneously with Panc2.13 pancreatic cancer cells. […] All groups tolerated drug treatments very well. […] Scabs formed after 1-2 weeks and the skin recovered with minimal scaring after 3-4 weeks. Tumor growth/re-growth on or near the injection site was monitored for up to 55 days. […] Tumor growth inhibition is calculated by dividing the group average tumor volume for the treated group by the group average tumor volume for the control group (TIC). A one-way ANOVA was performed to compare tumor volume among groups, and when a significant F-statistics (a ratio of treatment variance to the error variance) was obtained, comparisons between groups were carried out with Games-Howell test. All data were analyzed using GraphPad 5.0. P<0.05 was considered to be statistically significant.
A Mann-Whitney method was performed to analyze the tumor clearance rate comparing drug treated groups with the vehicle group at the end of the efficacy study. P<0.05 was considered to be statistically significant. Vehicle-injected tumors kept growing and there was no tumor clearance at the end point.

[4] = Homo sapiens, HeLa, 16 h, read-out: NFκB-luc HeLa cells EC50 (μM)
[5] = Homo sapiens, HL-60, read-out: IC50 HL-60 (Leukemia)

SMILES	Ki (C1b domain of human PKCε) [µM]	ratio (IC50 of K101)/(IC50 of compound) Mino (Mino (Lymphoma))	IC50 (KP-4 (Pancreatic)) [µM]	ratio (IC50 of K101)/(IC50 of compound) Panc2.13 (Panc2.13 (Pancreatic))	IC50 (Panc2.13 (Pancreatic)) [µM]	ratio (IC50 of K101)/(IC50 of compound) HL-60 (HL-60 (Leukemia))	Ki (C1b domain of human PKCα) [µM]	ratio (IC50 of K101)/(IC50 of compound) Namalwa (Namalwa (Lymphoma))	IC50 (Namalwa (Lymphoma)) [µM]	EC50 [1, 4] [µM]	IC50 (Mino (Lymphoma); Homo sapiens, MINO) [µM]	IC50 (A549 cell line; Homo sapiens, A549, 96 h) [µM]	IC50 (HL-60 (Leukemia); [5]) [µM]	phosphorylation of PKCμ, PKCδ and Erk1/2 ([3]; 0.3 μM)	other results
CC1=C[C@H]2[C@@]3(O)[C@H](C)C[C@]4(OC(=O)[C@@H](N)Cc5ccccc5)[C@H]([C@@H]3C=C(CO)C[C@]2(O)C1=O)C4(C)C	0.1 to 0.2	0.57	0.6 to 1	0.75	1 to 2	0.9	0.4 to 0.8	0.19	0.2 to 0.6						EC50 ([1]; read-out: NFκB-luc HeLa cells EC50, 16h): 0.2 to 0.6 µM; Ki (C1b domain of human PKCθ): 0.03 to 0.06 µM; Ki (C1b domain of human PKCδ): 0.03 to 0.06 µM; IC50 (Mino (Lymphoma)): 0.1 to 0.2 µM; Ki [2]: 0.01 to 0.03 µM; IC50 (A549 cell line; 96 hours, CellTiter Glo): 0.6 to 1 µM; IC50 (HL-60 (Leukemia); read-out: IC50 HL-60 (Leukemia)): 0.2 to 0.6 µM; phosphorylation of PKCμ, PKCδ and Erk1/2 ([3]; 3 μM): induced phosphorylation
CC1=C[C@H]2[C@@]3(O)[C@H](C)C[C@]4(OC(=O)[C@@H](N)CCCc5ccccc5)[C@H]([C@@H]3C=C(CO)C[C@]2(O)C1=O)C4(C)C		6	0.1 to 0.2	3.65	0.2 to 0.6	1.79	0.06 to 0.1	1.53	0.03 to 0.06	0.06 to 0.1	0.01 to 0.03	0.06 to 0.1	0.03 to 0.06	induced high levels of phosphorylation	IC50 (PANC1 cells): ≤ 1.5 µM
CC1=C[C@H]2[C@@]3(O)[C@H](C)C[C@]4(OC(=O)CCc5ncc(-c6ccc(Cl)cc6)o5)[C@H]([C@@H]3C=C(CO)C[C@]2(O)C1=O)C4(C)C		5.36				5.71	0.06 to 0.1	1.15	0.03 to 0.06	0.1 to 0.2	0.01 to 0.03	0.03 to 0.06		induced high levels of phosphorylation	IC50 (HL-60 (Leukemia); Homo sapiens, HL-60, 96 h, read-out: IC50 HL-60 (Leukemia)): 0.1 to 0.6 µM
CC/C=C\C/C=C\C/C=C\C/C=C\C/C=C\C/C=C\CCC(=O)O[C@@]12C[C@@H](C)[C@@]3(O)[C@@H](C=C(CO)C[C@]4(O)C(=O)C(C)=C[C@@H]34)[C@@H]1C2(C)C	0.01 to 0.03	82.5	0.001 to 0.01	157	0.001 to 0.01	80	0.06 to 0.1	20.9	0.001 to 0.01	0.001 to 0.01	< 0.001	0.001 to 0.01	0.001 to 0.01		
CC1=C[C@H]2[C@@]3(O)[C@H](C)C[C@]4(OC(=O)[C@H](N)CCCCCCc5ccccc5)[C@H]([C@@H]3C=C(CO)C[C@]2(O)C1=O)C4(C)C [Compound K101-K134801]															tumor clearance (Panc2.13 tumors): complete clearance of tumors
